Patent US11932850B2, “Cancer chemoprevention with STAT3 blockers” (Jill M. Siegfried, LLC, priority 2018, dated 2024)

Tests used:
[1] = biological target: STAT3 (Homo sapiens, UniProt P40763); details: Leong et al., 2003; cited from earlier work
[2] = tested on: c-Myc in H1975-derived tumors; test: c-Myc expression in H1975 xenograft tumors (Western blot); type: in vivo, nude mice; details: H1975 xenograft tumors, range among individual tumors
Experimental: FIGS. 7C and 7D show c-Myc is suppressed after CS3D treatment in vivo. At the end of the treatments, tumors were harvested, whole cell lysates were prepared and RNA extracted for target gene analysis by Western blotting and RT-qPCR GAPDH protein was used as internal loading control for immunoblotting. CS3D treated tumors (C4, C5, and C6) from separate animals show a decrease in c-Myc expression level relative to the CS3M-treated group (C1, C2, and C3) in 201T. […] Data are shown as mean+/−SEM.
To determine how CS3D blocks NSCLC growth, Western blot, qRT-PCR, and immunohistochemical analysis were performed to determine expression of c-Myc in residual tumors. These analyses identified a substantial downregulation of c-Myc protein (FIGS. 7C and 7D) and mRNA levels (FIG. 7E) in individual CS3D-treated tumors relative to CS3M-treated tumors in both 201T and H1975 xenografts. Some variability in protein levels among individual xenografts was observed (FIGS. 7C and 7D); the densitometry units for c-Myc protein after normalizing for GAPDH levels ranged from 0.11-0.16 units for CS3D-treated xenografts and 0.25-0.46 units for CS3M-treated tumors in H1975. Similarly, in 201T-derived tumors these measurements ranged from 0.015 to 0.51 units for CS3D and 0.28 to 0.97 units for CS3M. Even with this variability, the effect across the groups in both cell lines was significant (P<0.05 for H1975 and P<0.042 for 201T xenografts), with a mean decrease of 65% and 70%, respectively.

[3] = tested on: M1 macrophages, M2 macrophages, MDSCs; test: Flow cytometry of immune cells isolated from lungs of NNK mice; type: in vivo; details: NNK 4 weeks then 1 week of drug administration
Source text: STAT3 also plays a central role in immune evasion. STAT3 specifically orchestrates immunosuppression by promoting M2 macrophage and myeloid-derived suppressor cells (MDSCs) activity while suppressing M1 macrophage function [Su et al. Int. J. Mol. Science 19: pll:E1803, 2018]. Thus STAT3 inhibition by CS3D should favor an antitumor immune response by enhancing M1 macrophage activity.
Lungs from mice were digested with RPMI media containing collagenase and DNase to obtained single cell suspension. The cells were counted and 1×10^6 cells were staining with fluorescent labeled CD45, CD11b, MHC II, Ly6C and F4/80. The labeled cells were gated and data acquired on LSR fortessa (BD Biosciences) and further analysed by Flowjo.

[4] = tested on: Ki-67, p-STAT3, NF-κB in H1975 xenografts; test: IHC of H1975 xenografts after 5 daily iv injections; type: in vivo, nude mice; details: H1975 xenografts
Experimental: Because tumors treated for several weeks with the STAT3 decoy were largely composed of debris (as illustrated in FIG. 11), xenografts were examined after only 5 daily tail vein injections to determine what cellular changes were induced prior to collapse of the intracellular tumor structure. […] Tumors derived from H1975 xenografs were analyzed by immunohistochemical staining for p-STAT3 after 5 daily iv injections of either STAT3 decoy or mutant decoy. […] This effect is quantified in FIG. 9B.
Images were captured at 40× magnification. A shift from 41% of cells was observed and scored as high-grade staining with CS3M treatment to 13% with high-grade staining in the presence of CS3D, with corresponding increases in moderate- and low-grade staining in the STAT3 decoy treated group (FIG. 12B). […] Bright field images were captured at 40× magnification. Frequency of high-grade staining for p-STAT3 differed between CS3D and CS3M treatment groups (23% in CS3D-treated and 51% in CS3M treated, with corresponding increase in low-grade staining in presence of the active decoy (FIG. 9B). Significant degradation of p-STAT3 protein was detected by IHC in tumors was observed after treatment with CS3D. Percent of high staining fields was reduced from 48% to 22% while percent of fields with low staining increased, P<0.001 (FIG. 9B).
(§1) Immunohistochemical analysis: Tumors were excised for immunohistochemical (IHC) staining; 5-μm (micron) sections were cut from formalin-fixed paraffin-embedded tissue blocks, deparaffinized and rehydrated using successive washes of xylene followed by ethanol. Antigen retrieval was performed in a microwave oven (for 20 minutes) in an unmasking solution containing sodium citrate buffer followed by peroxidase blocking in 3% hydrogen peroxide. The sections were incubated in ABC blocking buffer (Vector laboratories Inc, Burlingame, California) for 1 hour at room temperature. Sections were then stained with H&E (hematoxylin and eosin) or subjected to sequential incubations with different primary antibodies and peroxidase-conjugated goat anti-rabbit secondary antibodies. The following primary antibodies were used (at the indicated dilutions): cleaved caspase-3 (#9664, Cell Signaling, 1:300), p-STAT3 (#9145, Cell Signaling, 1:400), Ki67 (#ab15580, Abcam, 1:1000). Sections were developed with DAB and counterstained with hematoxylin. Bright field microscopy was performed using Leica DM 4000 B LED microscope and images were captured at 20× and 40× magnification using LASv4.7 software. IHC analysis was done as a blinded study with 100 images from each treatment group graded as low, moderate, or high. Staining was graded as low (<30% positive cells per field, scored as 1), moderate (30-60% positive cells per field, scored as 2) or high (>60% positive cells per field, scored as 3).

[5] = biological target: T1, pSTAT3-ubiquitin complexes in H1975 cells (Homo sapiens, UniProt P40763); test: p-STAT3 immunoprecipitation and ubiquitin immunoblot; type: cell-based; details: H1975, 100 nM, 24 hr post-transfection
T1 construct: Post-transfection with either 100 nM CS3D or CS3M, H1975 were lysed in IP lysis buffer; endogenous in cells; host or cells: H1975
T1 sequence (P40763 2-770 limits assumed, one chain of several): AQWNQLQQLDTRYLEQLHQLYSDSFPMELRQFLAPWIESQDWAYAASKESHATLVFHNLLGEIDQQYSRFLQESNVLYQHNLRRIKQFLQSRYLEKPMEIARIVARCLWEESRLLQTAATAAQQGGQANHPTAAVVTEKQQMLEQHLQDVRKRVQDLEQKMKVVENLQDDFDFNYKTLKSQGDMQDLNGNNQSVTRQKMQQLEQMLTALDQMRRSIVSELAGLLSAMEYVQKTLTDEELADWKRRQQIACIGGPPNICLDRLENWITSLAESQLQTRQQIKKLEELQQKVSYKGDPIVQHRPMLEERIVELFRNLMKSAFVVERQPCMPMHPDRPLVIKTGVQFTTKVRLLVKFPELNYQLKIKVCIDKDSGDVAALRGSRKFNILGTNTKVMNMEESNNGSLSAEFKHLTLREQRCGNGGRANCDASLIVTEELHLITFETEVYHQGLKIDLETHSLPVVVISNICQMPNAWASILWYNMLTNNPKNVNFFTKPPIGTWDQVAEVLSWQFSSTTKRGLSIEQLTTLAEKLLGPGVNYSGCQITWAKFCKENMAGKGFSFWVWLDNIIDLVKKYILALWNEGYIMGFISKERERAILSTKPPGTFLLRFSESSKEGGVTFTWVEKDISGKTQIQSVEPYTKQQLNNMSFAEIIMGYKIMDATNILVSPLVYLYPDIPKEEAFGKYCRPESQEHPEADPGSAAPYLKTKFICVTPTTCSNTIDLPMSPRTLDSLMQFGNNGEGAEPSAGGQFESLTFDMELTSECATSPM

[6] = tested on: cleaved caspase-3 in H1975 xenografts; test: IHC of cleaved caspase-3 in H1975 xenografts at end of treatment; type: in vivo, nude mice; details: after last day of treatment (day 14)
Source text: For mRNA levels in tumor lysates, CS3D produced a 60-70% reduction of c-Myc gene expression relative to GAPDH compared to CS3M (FIG. 7E). […] Some cleaved caspase 3 staining was localized in nuclei, where caspase-3 is known to be active. Some caspase 3 staining was also evident in fibroblasts.
as §1, with “The following primary antibodies were used (at the indicated dilutions): cleaved caspase-3 (#9664, Cell Signaling, 1:300), p-STAT3 (#9145, Cell Signaling, 1:400), Ki67 (#ab15580, Abcam, 1:1000). Sections were developed with DAB and counterstained with hematoxylin. Bright field microscopy was performed using Leica DM 4000 B LED microscope and images were captured at 20× and 40× magnification using LASv4.7 software. IHC analysis was done as a blinded study with 100 images from each treatment group graded as low, moderate, or high.” left out

STAT3, sequence (P40763 whole entry, species assumed): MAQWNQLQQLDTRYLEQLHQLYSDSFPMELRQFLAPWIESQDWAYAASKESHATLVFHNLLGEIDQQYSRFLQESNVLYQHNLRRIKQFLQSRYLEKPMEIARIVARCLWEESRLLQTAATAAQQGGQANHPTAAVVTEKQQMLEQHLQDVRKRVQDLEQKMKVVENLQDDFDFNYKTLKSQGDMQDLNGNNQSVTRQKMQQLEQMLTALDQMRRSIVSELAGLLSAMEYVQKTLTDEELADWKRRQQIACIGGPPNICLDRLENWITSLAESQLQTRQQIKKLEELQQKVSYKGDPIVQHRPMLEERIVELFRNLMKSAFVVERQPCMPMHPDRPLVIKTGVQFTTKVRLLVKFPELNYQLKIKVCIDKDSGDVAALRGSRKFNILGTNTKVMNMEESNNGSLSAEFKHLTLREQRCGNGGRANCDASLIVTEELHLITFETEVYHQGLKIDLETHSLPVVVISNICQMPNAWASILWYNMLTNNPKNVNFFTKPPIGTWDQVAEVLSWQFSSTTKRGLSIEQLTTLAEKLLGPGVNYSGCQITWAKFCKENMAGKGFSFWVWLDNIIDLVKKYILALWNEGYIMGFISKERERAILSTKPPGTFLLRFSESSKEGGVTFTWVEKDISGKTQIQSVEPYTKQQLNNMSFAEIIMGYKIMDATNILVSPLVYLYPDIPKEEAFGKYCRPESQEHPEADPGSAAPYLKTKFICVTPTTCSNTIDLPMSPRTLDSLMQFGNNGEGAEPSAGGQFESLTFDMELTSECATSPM

CS3M: mutant inactive control of CS3D, T-A base pair replacing G-C base pair at position 9 (SEQ ID NO. 6); unable to bind STAT3 (GATTTAAGGGAAATGCSCATTTCCC; cyclic decoy, mutant control, further chemistry not given here) [reference compound]
binding to STAT3 [1]: unable to bind STAT3 | c-Myc protein densitometry normalized for GAPDH [2]: 0.25-0.46 units | M2 macrophages [3]: 18.3% | MDSCs [3]: 4.56% | Ki-67 high-grade staining ([4]; 5 daily injections): 41% | frequency of high-grade staining for p-STAT3 ([4]; 5 daily iv injections): 51% | percent of high staining fields for p-STAT3 ([4]; second statement in b134 (FIG. 9B)): 48% | ratio of pSTAT3-ubiquitin complex to STAT3 (densitometry) [5]: 0.74 | fields scoring high level of cleaved caspase-3 [6]: 10%
